Consider one compound from ChEMBL document CHEMBL6127129 (J Nat Prod, 2024).

This assay concerns the target Estrogen receptor beta (Homo sapiens, UniProt Q92731).

Sequence of Estrogen receptor beta (Q92731 whole entry): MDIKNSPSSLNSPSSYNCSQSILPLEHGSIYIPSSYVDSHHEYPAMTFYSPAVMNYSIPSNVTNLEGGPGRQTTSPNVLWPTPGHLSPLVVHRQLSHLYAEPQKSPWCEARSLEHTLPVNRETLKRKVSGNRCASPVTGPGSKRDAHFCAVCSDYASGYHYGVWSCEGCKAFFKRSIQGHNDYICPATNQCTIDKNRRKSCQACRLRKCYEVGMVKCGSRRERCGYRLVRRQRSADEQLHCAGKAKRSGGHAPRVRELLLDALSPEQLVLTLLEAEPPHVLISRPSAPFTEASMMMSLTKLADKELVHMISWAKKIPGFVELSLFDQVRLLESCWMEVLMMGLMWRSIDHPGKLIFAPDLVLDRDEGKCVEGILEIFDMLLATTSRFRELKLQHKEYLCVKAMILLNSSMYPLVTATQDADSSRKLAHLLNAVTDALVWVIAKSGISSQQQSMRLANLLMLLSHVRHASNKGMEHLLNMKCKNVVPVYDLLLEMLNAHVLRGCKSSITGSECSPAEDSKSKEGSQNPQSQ
Description: Antagonist activity at human ER-beta transfected in human HepG2 cells incubated for 24 hrs by 3xERE-driven luciferase reporter assay

As to `C=CCc1ccc(OC(=O)CCC)c(-c2ccc(O)c(CC=C)c2)c1`, the midpoint of inhibition, the IC50, lay at 1320 µM. That is a millimolar value.
